Values quoted from earlier work, collected in patent publication US6127342A, “Method for preventing or treating a lung disease caused by active oxygen and free radical injury” (Teijin Limited, priority 1991, dated 2000).

Tested on: glutathione peroxidase
Details: Flohe, et al.; cited from earlier work

SMILES: COC(=O)[C@H](CS)NC(=O)CC[C@H](N)C(=O)O
- efficiency as substrate of glutathione peroxidase compared with glutathione: 20-30%
